One series addresses sRI-sT complex (Enterobacteria phage T4, UniProt P06808+P13304). Put plainly: biochemical. It is filed as binding.
The series “crystal structure” concerns the molecule itself. Put plainly: crystal structure.

Chain of sRI-sT complex (P06808 56-218, one chain of several): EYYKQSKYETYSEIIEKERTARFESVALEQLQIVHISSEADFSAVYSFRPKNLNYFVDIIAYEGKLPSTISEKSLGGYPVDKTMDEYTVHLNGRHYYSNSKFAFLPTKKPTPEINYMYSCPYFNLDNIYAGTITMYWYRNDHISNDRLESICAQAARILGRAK

Broadly, the Kd is the equilibrium constant for the complex coming apart. For the molecule `Nc1nc2c(ncn2[C@@H]2O[C@H](CO)[C@@H](O)[C@H]2O)c(=O)[nH]1` [guanosine], the dissociation constant Kd on sRI-sT complex amounted to 43 µM.

B1: periplasmic/soluble domain of the antiholin RI (sRI), residues 25-97, with C-terminal histidine tag (domain or fragment, T4 phage, UniProt P13304 25-97, looked up)
chain: NVDPHFDKFMESGIRHVYMLFENKSVESSEQFYSFMRTTYKNDPCSSDFECIERGAEMAQSYARIMNIKLETE
modifications: disulfide bond between Cys69 and Cys75
Broadly, the stoichiometry N is the number of molecules, sites or subunits per partner or assembly. For the molecule B1, the “stoichiometry N” value in the series “crystal structure” came to 4.

The record behind these values is paper PMC7394242 (Journal of molecular biology, 2020).
